The subject of series [1] is SFFV. Put plainly: Treatment of 5-day-SFFV-infected mice, plasma SFFV RNA by real-time RT-PCR. Type of series: in vivo. The text has this:
SFFV replicates to high titers in mice, whereby the spleen is a virus-shedding reservoir. The virus stock is recovered from spleen homogenates after full-blown disease, at about day 20 post infection (pi). The clarified supernatant contains around 2×10^5 focus forming units (FFU) per mil. Infection was normally performed by intravenous (iv) injection of 4×10^3 SFFV. After 5 days the blood was recovered (100 microliters) for detection of the viral RNA. The equivalent of 0.05 microliters was enough for RNA detection by 40 cycles. One FFU corresponds to about 6×10^4 RNA copies or 3×10^4 virus particles.
A number of experiments were carried out to evaluate the effect of ODNs on the SFFV mouse model. We treated 5-day-SFFV-infected mice (thick arrow) with ODN M (triangle) and measured the plasma RNA levels 4 hours after the in vivo therapy by real-time RT-PCR (FIG. 10a.1). In a second experiment we isolated the plasma of 5-day-SFFV-infected mice and treated it ex vivo with ODN M for 4 hours (FIG. 10a.2). In the third experiment we isolated uninfected plasma, incubated it ex vivo with ODN M for 2 hours followed by the addition of SFFV for 4 more hours (FIG. 10a.3). Finally we incubated ODN M and SFFV together in normal mouse plasma ex vivo for 4 hours (FIG. 10a.4).
To elucidate further the antiviral effect of ODN M in vivo we set up different therapeutic regimens. We infected mice with SFFV and then treated them 5 days later twice at an interval of two hours with either ODN M (1 mg), asPPT, ODN A as control, or PBS. The RNA was extracted 4, 8 and 16 hours later for PCR analysis (FIG. 10b.1). The viral RNA decreased approximately 6-fold in the plasma and started to slowly increase again 16 hours post-therapy.
In the next study, we used a single injection as treatment protocol and assessed the antiviral effect of both ODN M and asPPT in a short time-course. Plasma was taken from mice at 0.5, 1, 2, and 4 hours after the single treatment (FIG. 10b.2). A strong decrease of the number of SFFV RNA copies was detectable 4 hours after treatment. […] We conclude from FIG. 10b.2 that a single injection is sufficient to decrease the number of RNA copies by approximately 6-fold 4 hours after the beginning of the therapy.
In order to test, whether the SFFV titer increases again after ODN M-treatment, and whether it remains sensitive for ODN M, we treated 5-day-SFFV-infected mice at 3 days intervals with a double dose within 2 hours intervals. Plasma was taken before and 4 hours after treatment and assessed for viral RNA levels (FIG. 10b.3). ODN M exerted a strong antiviral effect with a reduction of RNA copies of 6-fold at day 0 compared with the control. At day 3, the effect is even stronger with 8-fold decrease of the SFFV RNA level.
To obtain a more continuous effect of ODN M and asPPT on SFFV replication we treated the SFFV-infected mice every 12 hours (FIG. 10b.4). […] The lack of response is in accordance with our previous in vitro studies on the sequence-specificity of the ODN A.
PCR was performed as indicated. 1. Mice infected with 200 μl containing 4×10^3 FFU SFFV for 5 days were treated i.v. with ODN M (1 mg corresponding to about 20 μM ODN M in the blood of a mouse) or PBS 4 hours post-treatment, plasma (100 μl) was recovered and analyzed by real time RT-PCR for SFFV RNA. 2. Plasma from a 5-day-SFFV-infected mouse was recovered and 100 μl were treated with ODN M (20 μM) for 4 hours at 37° C. ex vivo and then analyzed. 3. Plasma from a mock-infected mouse was treated with ODN M (20 μM) for 2 hours and then treated with 4×10^3 FFU in 20 μl for 4 hours. 4. Plasma from mock-infected mice was incubated with a combination of SFFV (4×10^3 FFU in 20 μl) and ODN M (20 μM) for 4 hours and then analyzed. The RNA levels were determined by real-time RT-PCR in the four experimental scenarios and are shown to the right.
b. Effect of ODN treatment following SFFV-infection in vivo. […]
A general note: In qPCR the cycle at which signal appears reflects the starting amount.

Series [2] deals with SFFV. Kind of series: Prophylactic SFFV mouse model: virions pre-incubated with ODNs, injected i.p., then i.v. treatments. Type of series: in vivo, mice. As for the experimental part: Next we evaluated the prophylactic effect of ODN M on SFFV replication. For this we established 5 groups of 5 mice each. We pre-incubated SFFV with different ODNs or PBS for 2 hours and then injected the two together intraperitoneally at time 0. Then the mice were treated at 2, 4, and 24 hours post-infection by i.v. route. After 5 days, plasma from the mice was analyzed for viral RNA levels. […] A blood smear of the mice at day 64 post-infection was analyzed by Giemsa staining.
a. SFFV virions pre-treated with ODNs for 2 hours were injected i.p. into mice. Subsequent treatments were at 2, 4 and 24 h post infection. 5 groups of 5 mice each were used: negative control (1), infection with PBS (2), ODN M (3), or ODN A treatment (4) and mock-infection with ODN M treatment (5). Bleeding was performed five days post-infection for analysis of the viral RNA. The relative RNA levels standardized to group 2 of fully infected mice (bars) as well as RT-PCR products of the individual mice (gel analysis) are shown.

The subject of series [3] is SFFV. Put plainly: NIH 3T3 cells infected with ODN-pretreated SFFV. Type of series: cell-based. The conditions noted are these: three days post-infection, real-time RT-PCR. The text has this: As next step we investigated the antiviral effect of ODNs by testing pre-treated virions for residual infectivity as has been described before for HIV particles. SFFV particles were pretreated with ODN M or its variants and used to infect NIH 3T3 cells. After three days RNA was extracted from infected cells and from the supernatants and SFFV was quantified by real-time RT-PCR and analysis of amplification products (FIG. 9b).
b. NIH 3T3 cells were infected with SFFV pretreated with various ODNs. After three days the cells and supernatants were harvested and analyzed for SFFV RNA levels by quantitative real time RT-PCR (top) and RT-PCR (bottom) using GAPDH for comparison.

Series [4] concerns SFFV. Put plainly: Early i.v. therapy 2, 6 and 10 hours after SFFV infection of mice. Type of series: in vivo. The conditions noted are these: i.v. treatment 2, 6 and 10 hours after infection; for establishment of SFFV infection (PCR of blood samples): whole period tested. As for the experimental part: In another experimental setting we assessed the effect of an i.v. therapy early after infection. We infected mice with SFFV and treated them 2, 6, and 10 hours later with ODN M, asPPT or PBS.
c. Mice infected with SFFV (4×10^2 FFU) i.v. received triple-treatments with ODNs at 2, 6 and 10 hours post-infection. Real-time RT-PCR analysis (graph) and RT-PCR (gel analysis) was performed with RNA from plasma beginning at day 5 and at the days indicated.

[5] abbreviates: treated every 12 hours, up to 60 hours.
Setting [6] is: SFFV pre-incubated 2 hours, i.p., i.v. treatments at 2, 4, 24 hours, day 5.

As for “CCCTTCCAGTCCCCCCTTTTCTTTT (chemistry not given here) [asPPT, single-stranded antisense PPT of HIV, lacks the passenger strand and the linker]”, the “decrease of SFFV RNA levels (plateau)” value in the series on SFFV [1] (setting [5]) is on record as ~5 fold. Moreover, in the series on SFFV [2] (pretreatment in a small test tube 1 to 4 hours, then infection of the mouse), the “viral infectivity in the body after pretreatment of the virus” value is on record as “completely abrogate viral infectivity”. Further, the “SFFV RNA in infected cells and supernatant” value in the series with SFFV [3] is “clearly less efficient”. Further, in the series on SFFV [4], the “health of infected mice (spleen enlargement in mock-treated)” value is given as “healthy” and the “establishment of SFFV infection (PCR of blood samples)” value is listed as “prevented the establishment of the SFFV-infection”.

For “TTTTCTTTTGGGGGGTTTGGTTGGGTTTTCCCTTCCAGTCCCCCCTTTTCTTTT (phosphorothioate linkages, further chemistry not given here) [ODN A, 25 mer antisense and 25 mer passenger strand connected by T4, phosphorothioated at each end and in linker, targeted to extended PPT of HIV-1]”, the “effect on viral replication” value in the series with SFFV [1] (double dose at 3 days intervals) is listed as “no effect on viral replication”. The “effect on decrease of the RNA level” value in the series with SFFV [1] (setting [5]) is on record as “no significant effect”. In the series with SFFV [2] (setting [6]), the “reduction in RNA expression level” value is reported as 30%. In addition, in the series with SFFV [3], the “SFFV RNA in infected cells and supernatant” value is listed as “clearly less efficient”.

Take “TCTTTTTGGGGGGTTTGTTTGTTTTTTCTTTCATTCCCCCCTTTTTCT (chemistry not given here) [ODN M, 22-mer antisense and 22-mer second strand connected by T4, targeted to extended PPT of SFFV]”: the “reduction of RNA copies compared with the control” value in the series with SFFV [1] (double dose within 2 hours, day 0, 4 hours after treatment) is listed as 6 fold. The “decrease of the SFFV RNA level” value in the series with SFFV [1] (double dose within 2 hours, day 3) was determined as 8 fold. The “antiviral effect compared with asPPT” value with SFFV [1] (single injection, 2 hours after beginning of therapy) is “stronger than that of asPPT”. The “decrease of number of SFFV RNA copies” value with SFFV [1] (single injection, 4 hours after beginning of therapy) is listed as “approximately 6 fold”. Further, the “decrease of SFFV RNA levels (plateau)” value in the series on SFFV [1] (setting [5]) is “about 10 fold”. For the same sequence, the “decrease of viral RNA in the plasma” value with SFFV [1] (treated twice at an interval of two hours, 1 mg, RNA at 4, 8, 16 hours) was “approximately 6 fold”. The “decrease of plasma RNA levels compared to PBS control mice” value in the series on SFFV [2] (setting [6]) is 5 fold. Besides, in the series with SFFV [2] (day 64 post-infection), the “blood smear, Giemsa staining” value was “normal blood cell population”. Further, in the series with SFFV [3], the “SFFV RNA in infected cells and supernatant” value is given as “suppressed viral replication”. In the series with SFFV [4], the “health of infected mice (spleen enlargement in mock-treated)” value is on record as “healthy” and the “establishment of SFFV infection (PCR of blood samples)” value is recorded as “prevented the establishment of the SFFV-infection”.

The record behind these values is patent publication US20160281089A1, “PREVENTION OF VIRAL INFECTIVITY” (priority 2005, published 2016).
